From patent publication US9309242B2, “Substituted pyrido[2,3-b]pyrazines as FGFR kinase inhibitors” (priority 2011, dated 2016)

Key:
[1] = target: FGFR1 (h) (Homo sapiens, UniProt P11362); assay: FGFR1 (enzymatic assay), TR-FRET; type: biochemical; details: read-out: FGFR 1 pIC50 (converted)
[2] = target: FGFR3 (h) (Homo sapiens, UniProt P22607); assay: FGFR3 (enzymatic assay), TR-FRET; type: biochemical; details: read-out: FGFR 3 pIC50 (converted)
From the text: Time-Resolved Fluorescence Resonance Energy Transfer (TR-FRET) signal (ex340 nm.

[3] = target: FGFR4 (h) (Homo sapiens, UniProt P22455); assay: FGFR4 (enzymatic assay), TR-FRET; type: biochemical; details: FGFR 4 pIC50, enzymatic assay
[4] = target: KDR (h) (Homo sapiens, UniProt P35968); assay: KDR (VEGFR2) (enzymatic assay), TR-FRET; type: biochemical; details: read-out: VEGFR 2 (KDR) pIC50 (converted)
In short: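 First, kinase (150 ng/ml), Btn-Flt3 (500 nM), ATP (3 μM) and compound (1% DMSO) react 120 min at RT in pH 7.5 HEPES/6 mM MnCl2. Next, EDTA with Eu-anti-P-Tyr and SA-XL-665 stops it for 60 min. Finally, TR-FRET is read as RFU.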

[5] = target: T1, Ba/F3-FGFR1-transfected cells (Homo sapiens, UniProt P11362); assay: Ba/F3-FGFR1 (minus IL3) cellular proliferation assay, Alamar Blue; type: cell-based
T1 construct: BAF3-FGFR1 (MIN IL3) pIC50; other: minus IL3
In short: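 Ba/F3-FGFR1 cells, 20000/well, RPMI-1640 + 10% FBS + 2 mM L-Gln; compound in DMSO; 24 h, 37 °C, 5% CO2; Alamar Blue 4 h; RFU ex 540/em 590.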

[6] = test system: Ba/F3-FGFR1-transfected cells; assay: Ba/F3-FGFR1 (plus IL3) cellular proliferation assay, counterscreen with 10 ng/ml murine IL3; type: cell-based; details: plus IL3 (10 ng/ml murine IL3, counterscreen); read-out: BAF3-FGFR1 (PLUS IL3) pIC50 (converted)
In short: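 Ba/F3-FGFR1 cells (20000/well) in RPMI-1640 with 10% FBS exposed to compound for 24 h at 37° C., 5% CO2, then Alamar Blue (resazurin) added for 4 h; fluorescence read at ex 540/em 590 nm. Counterscreen run identically with 10 ng/ml murine IL3.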

[7] = target: T2, Ba/F3-FGFR3-transfected cells (Homo sapiens, UniProt P22607); assay: Ba/F3-FGFR3 (minus IL3) cellular proliferation assay, Alamar Blue; type: cell-based
T2 construct: BAF3-FGFR3 (MIN IL3) pIC50; other: minus IL3
In short: (§1)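 FGFR3-Ba/F3, 20000 cells/well, RPMI-1640 + 10% FBS, no phenol red; cpd in DMSO; 24 h, 37° C/5% CO2. Alamar Blue 4 h, RFU ex540/em590. Counterscreen: + murine IL3 10 ng/ml.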

[8] = test system: Ba/F3-FGFR3-transfected cells; assay: Ba/F3-FGFR3 (plus IL3) cellular proliferation assay, counterscreen with 10 ng/ml murine IL3; type: cell-based; details: plus IL3 (10 ng/ml murine IL3, counterscreen); read-out: BAF3-FGFR3 (PLUS IL3) pIC50 (converted)
In short: as §1

[9] = target: Ba/F3-FGFR4-transfected cells (Homo sapiens, UniProt P22455); assay: Ba/F3-FGFR4 cellular proliferation assay, Alamar Blue; type: cell-based
In short: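 Proliferation of Ba/F3-FGFR4-transfected cells is gauged by Alamar Blue (resazurin) fluorescence after 24 hours of compound treatment in phenol red free RPMI-1640 with 10% FBS.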

FGFR1 (h), sequence (P11362 22-822): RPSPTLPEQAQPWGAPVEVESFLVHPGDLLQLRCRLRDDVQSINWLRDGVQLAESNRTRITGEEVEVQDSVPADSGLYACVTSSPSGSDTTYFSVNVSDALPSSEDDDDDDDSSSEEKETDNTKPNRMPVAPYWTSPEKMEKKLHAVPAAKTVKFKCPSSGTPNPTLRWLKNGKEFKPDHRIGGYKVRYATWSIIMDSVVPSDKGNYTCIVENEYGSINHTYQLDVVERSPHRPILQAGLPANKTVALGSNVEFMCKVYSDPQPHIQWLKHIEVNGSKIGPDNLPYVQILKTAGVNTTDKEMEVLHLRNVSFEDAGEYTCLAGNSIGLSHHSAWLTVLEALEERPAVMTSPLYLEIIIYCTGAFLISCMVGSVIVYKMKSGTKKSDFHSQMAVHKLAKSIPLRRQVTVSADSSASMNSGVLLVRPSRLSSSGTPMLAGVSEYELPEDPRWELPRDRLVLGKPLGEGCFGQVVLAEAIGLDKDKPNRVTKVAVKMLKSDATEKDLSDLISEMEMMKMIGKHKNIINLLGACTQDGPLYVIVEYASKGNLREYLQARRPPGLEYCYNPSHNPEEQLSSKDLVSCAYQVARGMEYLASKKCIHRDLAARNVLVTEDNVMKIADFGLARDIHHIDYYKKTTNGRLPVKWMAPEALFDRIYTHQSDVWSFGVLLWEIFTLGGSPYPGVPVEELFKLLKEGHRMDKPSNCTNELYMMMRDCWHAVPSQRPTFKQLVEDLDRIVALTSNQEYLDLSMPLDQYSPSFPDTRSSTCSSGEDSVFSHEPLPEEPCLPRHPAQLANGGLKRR
T2 sequence (P22607 whole entry, change not shown): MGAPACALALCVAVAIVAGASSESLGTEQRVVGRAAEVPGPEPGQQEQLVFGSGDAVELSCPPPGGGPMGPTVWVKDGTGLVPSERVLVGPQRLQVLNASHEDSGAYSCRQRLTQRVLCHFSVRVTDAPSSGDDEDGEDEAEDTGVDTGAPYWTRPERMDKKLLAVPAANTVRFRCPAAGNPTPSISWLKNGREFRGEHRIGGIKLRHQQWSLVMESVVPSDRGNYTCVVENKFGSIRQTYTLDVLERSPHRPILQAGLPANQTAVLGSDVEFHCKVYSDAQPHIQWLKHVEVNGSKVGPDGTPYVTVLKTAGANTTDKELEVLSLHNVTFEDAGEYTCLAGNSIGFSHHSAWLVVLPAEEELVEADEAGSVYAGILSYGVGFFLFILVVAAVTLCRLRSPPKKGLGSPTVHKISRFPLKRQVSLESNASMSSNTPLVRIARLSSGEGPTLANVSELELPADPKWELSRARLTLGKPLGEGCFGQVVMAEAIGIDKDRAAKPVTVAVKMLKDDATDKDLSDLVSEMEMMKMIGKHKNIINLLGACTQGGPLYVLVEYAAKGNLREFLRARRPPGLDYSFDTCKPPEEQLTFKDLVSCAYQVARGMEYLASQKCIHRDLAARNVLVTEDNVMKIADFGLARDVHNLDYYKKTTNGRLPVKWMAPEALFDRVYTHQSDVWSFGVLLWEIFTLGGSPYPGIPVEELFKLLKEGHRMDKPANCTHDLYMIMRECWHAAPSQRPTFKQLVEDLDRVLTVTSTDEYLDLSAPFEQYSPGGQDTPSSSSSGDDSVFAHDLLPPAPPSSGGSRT
FGFR3 (h), sequence (P22607 23-806): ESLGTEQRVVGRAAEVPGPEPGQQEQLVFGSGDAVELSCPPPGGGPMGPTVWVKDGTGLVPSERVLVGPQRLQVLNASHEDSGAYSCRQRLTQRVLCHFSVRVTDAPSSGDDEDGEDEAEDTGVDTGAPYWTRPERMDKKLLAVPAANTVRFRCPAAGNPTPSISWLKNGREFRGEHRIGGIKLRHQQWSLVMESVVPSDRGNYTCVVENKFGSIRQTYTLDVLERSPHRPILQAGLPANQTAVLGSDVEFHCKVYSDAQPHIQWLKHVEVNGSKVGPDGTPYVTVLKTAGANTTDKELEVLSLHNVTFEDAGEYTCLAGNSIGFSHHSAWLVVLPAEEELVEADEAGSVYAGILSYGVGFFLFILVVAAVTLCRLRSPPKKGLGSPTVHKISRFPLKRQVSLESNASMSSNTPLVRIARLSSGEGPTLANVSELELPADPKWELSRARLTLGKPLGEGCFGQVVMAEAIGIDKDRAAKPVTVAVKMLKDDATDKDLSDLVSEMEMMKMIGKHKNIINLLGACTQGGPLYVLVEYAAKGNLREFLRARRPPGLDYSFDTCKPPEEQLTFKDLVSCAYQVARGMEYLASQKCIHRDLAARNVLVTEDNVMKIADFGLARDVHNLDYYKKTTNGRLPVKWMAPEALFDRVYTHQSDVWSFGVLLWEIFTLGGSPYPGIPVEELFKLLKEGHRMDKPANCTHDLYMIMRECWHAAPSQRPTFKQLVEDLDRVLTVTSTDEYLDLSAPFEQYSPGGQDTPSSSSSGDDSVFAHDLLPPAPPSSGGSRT
T1 sequence (P11362 whole entry, change not shown): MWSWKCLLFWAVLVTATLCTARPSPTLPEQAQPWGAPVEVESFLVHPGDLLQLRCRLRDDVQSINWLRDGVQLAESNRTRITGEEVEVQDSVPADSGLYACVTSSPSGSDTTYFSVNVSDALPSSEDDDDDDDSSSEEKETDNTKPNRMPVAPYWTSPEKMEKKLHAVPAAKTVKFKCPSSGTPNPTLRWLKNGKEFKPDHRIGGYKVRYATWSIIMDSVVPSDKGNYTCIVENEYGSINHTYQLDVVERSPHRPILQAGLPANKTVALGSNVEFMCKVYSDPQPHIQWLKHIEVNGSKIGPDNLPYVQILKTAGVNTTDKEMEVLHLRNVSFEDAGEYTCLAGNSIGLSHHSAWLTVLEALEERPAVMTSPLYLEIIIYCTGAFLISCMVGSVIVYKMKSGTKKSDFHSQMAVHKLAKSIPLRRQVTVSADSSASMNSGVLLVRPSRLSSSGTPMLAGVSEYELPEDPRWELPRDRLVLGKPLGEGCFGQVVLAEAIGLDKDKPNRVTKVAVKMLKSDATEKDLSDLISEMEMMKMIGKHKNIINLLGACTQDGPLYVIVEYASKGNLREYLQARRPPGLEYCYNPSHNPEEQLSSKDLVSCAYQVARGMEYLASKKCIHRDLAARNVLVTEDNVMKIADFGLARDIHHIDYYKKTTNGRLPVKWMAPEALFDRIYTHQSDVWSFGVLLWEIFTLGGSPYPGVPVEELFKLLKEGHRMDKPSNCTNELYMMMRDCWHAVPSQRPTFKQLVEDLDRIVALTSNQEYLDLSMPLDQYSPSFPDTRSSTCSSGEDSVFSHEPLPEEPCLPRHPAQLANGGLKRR
FGFR4 (h), sequence (P22455 22-802): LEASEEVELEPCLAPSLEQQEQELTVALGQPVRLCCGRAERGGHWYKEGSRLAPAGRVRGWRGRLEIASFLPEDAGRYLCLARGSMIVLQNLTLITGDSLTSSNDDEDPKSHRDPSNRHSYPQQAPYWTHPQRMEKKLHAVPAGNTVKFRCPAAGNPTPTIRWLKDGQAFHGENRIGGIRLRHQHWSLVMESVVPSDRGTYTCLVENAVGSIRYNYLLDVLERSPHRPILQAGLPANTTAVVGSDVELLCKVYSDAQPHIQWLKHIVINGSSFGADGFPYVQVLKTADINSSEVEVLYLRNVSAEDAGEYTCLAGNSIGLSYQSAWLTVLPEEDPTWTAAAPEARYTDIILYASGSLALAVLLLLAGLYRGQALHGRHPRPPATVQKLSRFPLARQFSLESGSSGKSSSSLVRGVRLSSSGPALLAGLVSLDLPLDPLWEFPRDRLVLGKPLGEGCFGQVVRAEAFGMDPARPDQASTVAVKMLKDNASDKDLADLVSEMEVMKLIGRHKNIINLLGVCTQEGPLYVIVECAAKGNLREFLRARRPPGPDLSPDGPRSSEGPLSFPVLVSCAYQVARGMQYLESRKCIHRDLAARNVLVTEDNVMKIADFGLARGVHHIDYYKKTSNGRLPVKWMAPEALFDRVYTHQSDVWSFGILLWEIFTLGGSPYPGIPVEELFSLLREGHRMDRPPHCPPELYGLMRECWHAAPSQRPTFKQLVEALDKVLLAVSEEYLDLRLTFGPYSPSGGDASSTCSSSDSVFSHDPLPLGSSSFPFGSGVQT
Ba/F3-FGFR4-transfected cells, sequence (P22455 whole entry, change not shown): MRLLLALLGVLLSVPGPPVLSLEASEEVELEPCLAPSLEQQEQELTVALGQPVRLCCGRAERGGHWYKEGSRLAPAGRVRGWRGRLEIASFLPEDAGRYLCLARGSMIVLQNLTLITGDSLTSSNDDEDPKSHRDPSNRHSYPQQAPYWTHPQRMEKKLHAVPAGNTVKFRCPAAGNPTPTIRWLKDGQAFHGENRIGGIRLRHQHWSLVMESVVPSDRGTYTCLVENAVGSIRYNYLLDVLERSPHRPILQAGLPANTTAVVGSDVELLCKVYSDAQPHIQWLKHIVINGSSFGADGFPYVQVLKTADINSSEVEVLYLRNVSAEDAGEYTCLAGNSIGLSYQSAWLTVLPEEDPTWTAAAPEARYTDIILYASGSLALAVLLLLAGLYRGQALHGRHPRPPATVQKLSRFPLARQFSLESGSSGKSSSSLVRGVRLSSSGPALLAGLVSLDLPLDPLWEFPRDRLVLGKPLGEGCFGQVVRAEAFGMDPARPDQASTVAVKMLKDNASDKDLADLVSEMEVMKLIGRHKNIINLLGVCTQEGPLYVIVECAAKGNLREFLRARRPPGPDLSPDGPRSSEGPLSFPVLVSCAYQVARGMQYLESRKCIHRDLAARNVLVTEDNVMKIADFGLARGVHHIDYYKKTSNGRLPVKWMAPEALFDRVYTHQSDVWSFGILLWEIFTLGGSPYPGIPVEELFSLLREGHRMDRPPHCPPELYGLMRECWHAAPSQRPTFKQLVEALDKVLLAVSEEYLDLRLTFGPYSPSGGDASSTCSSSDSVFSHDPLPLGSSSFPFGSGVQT

| SMILES | IC50 [1] [nM] | IC50 [2] [nM] | IC50 [3] [nM] | IC50 [4] [nM] | BAF3-FGFR1 (MIN IL3) pIC50 [5] | IC50 [6] [µM] | BAF3-FGFR3 (MIN IL3) pIC50 [7] | IC50 [8] [µM] | BAF3-FGFR4 pIC50 [9] |
| --- | --- | --- | --- | --- | --- | --- | --- | --- | --- |
| COc1ccc(Cl)c(N(CC2CCC(=O)N2)c2ccc3ncc(-c4cnn(C)c4)nc3n2)c1Cl (single isomer, unassigned) [Compound 90] | 166 | 126 | ~912 | > 1000 | 5.04 | > 10 | 5.19 | > 10 | <5 |
| COc1cc(OC)c(F)c(N(CCNC2COC2)c2ccc3ncc(-c4cnn(C)c4)nc3n2)c1F (single isomer, unassigned) [Compound 162] | 1.17 | 1.41 | 2.57 | 8.91 | 7.88 | > 10 | 7.95 | > 10 | ~7.56 |
| COc1cc(OC)c(F)c(N(CCN(C2COC2)C2COC2)c2ccc3ncc(-c4cnn(C)c4)nc3n2)c1F (single isomer, unassigned) [Compound 163] | 0.977 | 2.63 | 3.24 | 8.51 | 7.82 | > 10 | 7.34 | > 10 | 7.32 |
| COc1cc(/N=c2\ccc3ncc(-c4cnn(C)c4)nc3n2CC2CCOC2)c(F)c(OC)c1 (single isomer, unassigned) [Compound 169] | ~0.933 | 1.02 | 0.977 | 4.27 | 7.68 | > 10 | 7.44 | > 10 | 7.20 |
| COc1cc(OC)c(F)c(N(CC2CCOC2)c2ccc3ncc(-c4cnn(C)c4)nc3n2)c1 (single isomer, unassigned) [Compound 170] | 2.34 | 2.19 | 4.9 | 13.5 | 6.92 | > 10 | 6.78 | > 10 | 6.49 |
| COc1cc(/N=c2\ccc3ncc(-c4cnn(CC(C)(C)O)c4)nc3n2CC(C)(C)O)c(F)c(OC)c1 (single isomer, unassigned) [Compound 207] | 0.813 | 1.17 | 3.16 | 8.32 | 7.45 | > 10 | ~7.57 | > 10 | 6.69 |
| COc1cc(OC)c(F)c(N(CC(C)(C)O)c2ccc3ncc(-c4cnn(CC(C)(C)O)c4)nc3n2)c1 (single isomer, unassigned) [Compound 208] | 3.63 | 3.72 | 18.6 | 77.6 | 6.84 | > 10 | ~7.15 | > 10 | 6.16 |
| COc1cc(OC)c(F)c(N(CC2CCC(=O)N2CCO)c2ccc3ncc(-c4cnn(C)c4)nc3n2)c1 (single isomer, unassigned) [Compound 218] | 3.24 | 4.17 | 3.89 | 42.7 | 7.51 | > 10 | ~7.64 | > 10 | 6.99 |
| COc1cc(/N=c2\ccc3ncc(-c4cnn(C)c4)nc3n2CC2CCC(=O)N2CCO)c(F)c(OC)c1 (single isomer, unassigned) [Compound 219] | 0.813 | 1.29 | 1.91 | 7.94 | 7.77 | > 10 | 7.66 | > 10 | 6.78 |
| COc1ccc(Cl)c(N(CC2CCC(=O)N2)c2ccc3ncc(-c4cnn(C)c4)nc3n2)c1Cl (stereo not drawn) [Compound 93] | 66.1 | 77.6 | 794 | > 1000 | 5.59 | > 10 | ~5.59 | > 10 | 5.02 |
